We go through eleven compounds from patent US6685617B1, “Inhibitors of α4β1 mediated cell adhesion” (Pharmacia & Upjohn Company, priority 1998, dated 2004).

Bounds are passed on as bounds.

Assay [1] has as its target T1, α4β1 integrin (Jurkat T-cell adhesion to IL-1 stimulated endothelial cell monolayers) (Homo sapiens, UniProt P05556+P13612).
T1 construct: a T-cell line, Jurkat, known to express the α4β1 integrin; host or cells: Jurkat T-cell line
As to the kind of experiment: Jurkat-endothelial cell adhesion assay (Jurkat EC). In kind it is cell-based. Conditions: Jurkat cells on IL-1 stimulated human umbilical vein endothelial cells; read-out: JK/EC (Jurkat EC Assay IC50 value range). The method in brief:
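BCECF-AM-labelled Jurkat cells were mixed with compound, generally 100, 20, 5 and 1.25 μM, and added to HUVEC monolayers (passage ≤6) pre-stimulated 4 hr at 37° C with 0.1 ng/ml IL-1. After 5 min on ice and 20 min at 37° C, washed wells were read by fluorescence as % adhesion relative to no compound.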

For assay [2], the target named is T2, α4β1 integrin (Jurkat cell adhesion to immobilized CS-1 derived peptide CLHPGEILDVPST) (Homo sapiens, UniProt P05556+P13612).
T2 construct: 100 μl of Jurkat cells (2.5×10^6 cells/ml) in DMEM plus BSA; host or cells: Jurkat T-cell line
T2 sequence (P13612 34-1032): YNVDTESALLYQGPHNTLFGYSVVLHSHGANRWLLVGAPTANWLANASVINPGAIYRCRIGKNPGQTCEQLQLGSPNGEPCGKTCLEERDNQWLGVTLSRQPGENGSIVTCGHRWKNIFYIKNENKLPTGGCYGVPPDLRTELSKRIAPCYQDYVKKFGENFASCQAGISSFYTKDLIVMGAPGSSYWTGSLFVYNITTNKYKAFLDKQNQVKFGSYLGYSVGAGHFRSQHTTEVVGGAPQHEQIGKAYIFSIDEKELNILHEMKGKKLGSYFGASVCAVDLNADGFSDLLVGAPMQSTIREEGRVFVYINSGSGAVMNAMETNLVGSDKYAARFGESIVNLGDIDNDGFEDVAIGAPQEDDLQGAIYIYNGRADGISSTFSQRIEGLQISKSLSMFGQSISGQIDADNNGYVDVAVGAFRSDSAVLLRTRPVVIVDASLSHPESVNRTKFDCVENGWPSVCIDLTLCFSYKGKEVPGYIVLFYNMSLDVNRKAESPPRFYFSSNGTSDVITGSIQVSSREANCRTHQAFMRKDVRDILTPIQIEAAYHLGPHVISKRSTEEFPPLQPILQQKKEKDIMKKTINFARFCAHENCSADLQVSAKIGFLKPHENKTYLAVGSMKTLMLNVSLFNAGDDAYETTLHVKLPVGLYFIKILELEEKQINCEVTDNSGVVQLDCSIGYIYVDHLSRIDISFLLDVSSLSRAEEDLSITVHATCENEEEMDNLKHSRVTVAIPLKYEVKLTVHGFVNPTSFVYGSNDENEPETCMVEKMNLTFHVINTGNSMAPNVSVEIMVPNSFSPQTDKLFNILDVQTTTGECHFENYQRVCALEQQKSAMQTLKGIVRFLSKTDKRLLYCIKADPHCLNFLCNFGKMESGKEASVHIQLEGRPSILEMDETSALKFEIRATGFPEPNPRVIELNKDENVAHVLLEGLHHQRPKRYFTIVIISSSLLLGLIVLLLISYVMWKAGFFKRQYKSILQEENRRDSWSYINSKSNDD
T2 sequence (P05556 21-798): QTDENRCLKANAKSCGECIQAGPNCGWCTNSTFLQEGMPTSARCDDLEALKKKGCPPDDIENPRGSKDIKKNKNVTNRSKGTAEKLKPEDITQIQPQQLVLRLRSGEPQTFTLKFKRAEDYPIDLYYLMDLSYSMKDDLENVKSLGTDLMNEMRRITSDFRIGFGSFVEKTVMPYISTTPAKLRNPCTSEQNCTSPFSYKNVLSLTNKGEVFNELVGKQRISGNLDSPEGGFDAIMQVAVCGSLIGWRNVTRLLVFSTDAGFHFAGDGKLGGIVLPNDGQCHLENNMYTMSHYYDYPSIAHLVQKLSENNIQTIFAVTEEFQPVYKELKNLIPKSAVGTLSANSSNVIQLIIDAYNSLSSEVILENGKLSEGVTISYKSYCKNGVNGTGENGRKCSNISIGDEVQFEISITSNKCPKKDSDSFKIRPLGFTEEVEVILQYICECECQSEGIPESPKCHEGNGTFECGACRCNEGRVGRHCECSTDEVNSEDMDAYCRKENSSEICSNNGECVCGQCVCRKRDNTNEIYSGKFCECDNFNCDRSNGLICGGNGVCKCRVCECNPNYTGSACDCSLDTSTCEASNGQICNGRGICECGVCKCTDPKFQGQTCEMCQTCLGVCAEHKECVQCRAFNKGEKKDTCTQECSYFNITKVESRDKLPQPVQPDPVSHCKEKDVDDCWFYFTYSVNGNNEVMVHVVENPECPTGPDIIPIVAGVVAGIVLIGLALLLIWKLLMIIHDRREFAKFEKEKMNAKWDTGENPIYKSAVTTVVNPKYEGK
The assay is described as follows: Jurkat-CS-1 assay. In kind it is cell-based. Conditions: Jurkat cells on CS-1 peptide coated plates; read-out: JK/CS-1 (Jurkat CS-1 Assay IC50 value range). The procedure, abridged:
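CS-1 peptide was SPDP-crosslinked onto HSA-coated plates and blocked with BSA. Jurkat cells (2.5×10^6 cells/ml) in DMEM/BSA were mixed with compound, generally at 100, 20, 5 and 1.25 μM, and allowed to adhere for 1 hr at 37° C. Bound cells were fixed, stained with toluidine blue and quantified by OD590.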

T1 sequence (P13612 34-1032): as the sequence (P13612 34-1032) above
T1 sequence (P05556 21-798): as the sequence (P05556 21-798) above

`COC(=O)[C@H](Cc1ccc(NC(=O)c2c(Cl)cccc2Cl)cc1)NC(=O)[C@H]1CSCN1S(=O)(=O)c1ccc(C(F)(F)F)cn1` [Example 44, 4-[(2,6-Dichlorobenzoyl)amino]-N-[[(4S)-3-[[5-(trifluoromethyl)-2-pyridinyl]sulfonyl]-4-thiazolidinyl]carbonyl]-L-phenylalanine Methyl Ester]: the IC50 in assay [1] is not below 1000 nM; in assay [2], not below 750 nM.

Regarding `O=C(Nc1ccc(C[C@H](NC(=O)[C@H]2CSCN2S(=O)(=O)c2ccc(C(F)(F)F)cn2)C(=O)O)cc1)c1c(Cl)cccc1Cl` [Example 45], the IC50 in assay [1] is 250 to 1000 nM; in assay [2], 50 to 750 nM.

Turning to `COC(=O)[C@H](Cc1ccc(NC(=O)c2c(Cl)cccc2Cl)cc1)NC(=O)[C@H]1CSCN1S(=O)(=O)c1ccccc1` [Example 46, 4-[(2,6-Dichlorobenzoyl)amino]-N-[[(4S)-3-(phenylsulfonyl)-4-thiazolidinyl]carbonyl]-L-phenylalanine Methyl Ester], the IC50 in assay [1] is not below 1000 nM; in assay [2], not below 750 nM.

`O=C(Nc1ccc(C[C@H](NC(=O)[C@H]2CSCN2S(=O)(=O)c2ccccc2)C(=O)O)cc1)c1c(Cl)cccc1Cl` [Example 47]: the IC50 was not above 250 nM in assay [1] and not above 50 nM in assay [2].

Regarding `COC(=O)[C@H](Cc1ccc(NC(=O)c2c(Cl)cccc2Cl)cc1)NC(=O)[C@H]1CSCN1S(=O)(=O)c1cccc2c(N(C)C)cccc12` [Example 48, 4-[(2,6-Dichlorobenzoyl)amino]-N-[[(4S)-3-[[5-(dimethylamino)-1-naphthalenyl]sulfonyl]-4-thiazolidinyl]carbonyl]-L-phenylalanine Methyl Ester], the IC50 was not below 1000 nM in assay [1] and not below 750 nM in assay [2].

As for `CN(C)c1cccc2c(S(=O)(=O)N3CSC[C@@H]3C(=O)N[C@@H](Cc3ccc(NC(=O)c4c(Cl)cccc4Cl)cc3)C(=O)O)cccc12` [Example 49, 4-[(2,6-Dichlorobenzoyl)amino]-N-[[(4S)-3-[[5-(dimethylamino)-1-naphthalenyl]sulfonyl]-4-thiazolidinyl]carbonyl]-L-phenylalanine], the IC50 is not below 1000 nM in assay [1] and not below 750 nM in assay [2].

Turning to `COC(=O)[C@H](Cc1ccc(OCc2c(Cl)cccc2Cl)cc1)NC(=O)[C@H]1CSCN1S(C)(=O)=O` [Example 50, O-[(2,6-Dichlorophenyl)methyl]-N-[[(4S)-3-(methylsulfonyl)-4-thiazolidinyl]carbonyl]-L-tyrosine Methyl Ester], the figures for the IC50 in assay [1] and in assay [2] were not below 1000 nM and 50 to 750 nM, respectively.

As to `CS(=O)(=O)N1CSC[C@@H]1C(=O)N[C@@H](Cc1ccc(OCc2c(Cl)cccc2Cl)cc1)C(=O)O` [Example 51, O-[(2,6-Dichlorophenyl)methyl]-N-[[(4S)-3-(methylsulfonyl)-4-thiazolidinyl]carbonyl]-L-tyrosine], the IC50 was 250 to 1000 nM in assay [1] and 50 to 750 nM in assay [2].

For the compound `CC(C)(C)NC(=O)N1CSC[C@@H]1C(=O)N[C@@H](Cc1ccc(NC(=O)c2c(Cl)cccc2Cl)cc1)C(=O)O` [Example 52, 4-[(2,6-Dichlorobenzoyl)amino]-N-[[(4S)-3-[[(1,1-dimethylethyl)amino]carbonyl]-4-thiazolidinyl]carbonyl]-L-phenylalanine], the IC50 is not above 250 nM in assay [1] and 50 to 750 nM in assay [2].

Consider `CCN(CC)C(=O)N1CSC[C@@H]1C(=O)N[C@@H](Cc1ccc(NC(=O)c2c(Cl)cccc2Cl)cc1)C(=O)O` [Example 53, 4-[(2,6-Dichlorobenzoyl)amino]-N-[[(4S)-3-[(diethylamino)carbonyl]-4-thiazolidinyl]carbonyl]-L-phenylalanine], for which the figures for the IC50 in assay [1] and in assay [2] were not above 250 nM and not above 50 nM, respectively.

In the case of `CN(CCc1ccccn1)C(=O)N1CSC[C@@H]1C(=O)N[C@@H](Cc1ccc(NC(=O)c2c(Cl)cccc2Cl)cc1)C(=O)O` [Example 55, 4-[(2,6-Dichlorobenzoyl)amino]-N-[[(4S)-3-[[methyl[2-(2-pyridinyl)ethyl]amino]carbonyl]-4-thiazolidinyl]carbonyl]-L-phenylalanine], the IC50 was not above 250 nM in assay [1] and not above 50 nM in assay [2].
